The values that follow come from US20080096799A1, “COMPOUNDS FOR AND METHODS OF TREATING INSULIN RESISTANCE AND INFLAMMATION” (FORBES MEDI-TECH (RESEARCH), INC., priority 2006, published 2008).

The target of experiment [1] is T1, SPT (Homo sapiens, UniProt O15269+O15270).
T1 construct: endogenous in cells; host or cells: unnamed cultured cells (Assay B, which Assay C modifies, offers 'CHO cells or a human cell line')
T1 sequence (O15269 1-473): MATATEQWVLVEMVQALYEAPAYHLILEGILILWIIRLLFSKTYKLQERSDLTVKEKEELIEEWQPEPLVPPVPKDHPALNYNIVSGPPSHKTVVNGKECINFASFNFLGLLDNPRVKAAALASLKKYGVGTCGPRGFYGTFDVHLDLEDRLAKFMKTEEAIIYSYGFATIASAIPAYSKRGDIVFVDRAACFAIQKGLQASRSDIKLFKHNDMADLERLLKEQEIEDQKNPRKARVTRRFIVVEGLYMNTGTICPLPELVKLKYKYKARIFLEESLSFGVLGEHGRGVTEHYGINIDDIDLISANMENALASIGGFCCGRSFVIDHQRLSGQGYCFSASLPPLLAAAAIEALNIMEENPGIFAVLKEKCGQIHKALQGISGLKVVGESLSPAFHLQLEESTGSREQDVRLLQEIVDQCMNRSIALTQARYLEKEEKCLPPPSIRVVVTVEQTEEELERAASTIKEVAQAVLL
T1 sequence (O15270 1-562): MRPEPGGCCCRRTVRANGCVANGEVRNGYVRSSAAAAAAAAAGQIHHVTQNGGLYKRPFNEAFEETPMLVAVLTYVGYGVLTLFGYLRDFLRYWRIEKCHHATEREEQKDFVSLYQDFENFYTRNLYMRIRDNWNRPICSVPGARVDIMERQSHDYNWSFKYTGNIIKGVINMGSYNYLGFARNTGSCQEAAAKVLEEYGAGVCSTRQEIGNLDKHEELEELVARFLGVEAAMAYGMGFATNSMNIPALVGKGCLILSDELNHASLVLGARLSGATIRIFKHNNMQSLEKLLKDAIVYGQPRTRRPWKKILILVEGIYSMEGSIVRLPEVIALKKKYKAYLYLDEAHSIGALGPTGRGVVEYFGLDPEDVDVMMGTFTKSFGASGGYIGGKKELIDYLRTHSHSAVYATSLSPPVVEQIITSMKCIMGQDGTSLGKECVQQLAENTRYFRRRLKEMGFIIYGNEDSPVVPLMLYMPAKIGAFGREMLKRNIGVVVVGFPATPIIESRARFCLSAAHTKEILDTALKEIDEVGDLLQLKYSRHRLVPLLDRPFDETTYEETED
T1 sequence (Q969W0 1-71 partner): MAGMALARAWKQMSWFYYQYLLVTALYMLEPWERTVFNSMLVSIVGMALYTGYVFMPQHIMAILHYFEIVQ
The experiment can be described thus: Serine palmitoyltransferase activity, Assay C ([3H]serine incorporation into lipids, cell homogenates). It counts as biochemical. The following applies: [3H]serine radioactivity incorporated into lipids, 37° C. 20 min, at the doses indicated. Here is the method: An alternative assay for evaluating inhibition of SPT, the enzyme present in commonly cultured cells, is performed with CHO cells or a human cell line. Cells are washed three times with ice-cold phosphate-buffered saline (PBS). A total of 0.5 mL of lysis buffer [50 mM Hepes (pH 8.0) containing 5 mM ethylenediaminetetraacetic acid (EDTA) and 5 mM dithiothreitol (DTT)] is added to each dish. The cells are scraped using a rubber policeman, and are then transferred to a test tube on ice. The cell suspension is sonicated three times for 5 s at 1-2 min intervals on ice. Protein concentrations in cell homogenates are measured using a Bradford protein assay kit (Bio-Rad). […] The radioactivity is measured with a LS6000TA liquid scintillation counter (Beckman). Nonspecific conversion of [^3H] serine to chloroform-soluble species is determined by performing the assay in the absence of palmitoyl CoA. […]
An alternative assay using a non-chlorinated solvent modification of the Blye and Dyer lipid extraction method reported in Smedes (Smedes, F. (1999) Analyst 124, 1711-18) is employed to evaluate exemplary compounds. […] An accurately measured portion of the organic layer (4.0 ml) is added to a scintillation vial with 1 ml of water. […] The amount of [^3H] serine radioactivity incorporated into lipids is quantified in a scintillation counter. […]

In experiment [2] the test system is SPT. The following applies: literature report, immunosuppressive assay for FTY720-like activity; cited from earlier work.
In the next experiment the test system is Rat pancreatic islets. The experiment can be described thus: Protection of islets by an SPT inhibitor (fatty acid medium, propidium iodide flow cytometry). It counts as cell-based. The following applies: 3 days. The protocol: Islet protection by an exemplary compound is evaluated in an assay according to Eitel, K, et al. Biochem. Biophys. Res. Commun. 299: 853-6 (2002), and results obtained in this assay are reported below in Table 4. Rat pancreatic islets are cultured with control medium (RPMI 1640 supplemented with 10% fetal bovine serum, antibiotics and made […]) or in medium supplemented with 1 millimolar sodium palmitate (Fatty Acid Medium) during a period of 3 days. The culture medium is changed after 2 days to an identical composition culture medium with fresh inhibitor in the appropriate wells. Cells are stained with propidium iodide (PI), washed and propidium staining of cells (as a measure of cellular DNA content) is assessed by flow cytometry. The percentage of cells having less than the normal amount of PI staining is considered to be apoptotic cells (Eitel, K, et al. (2002)).

Experiment [3] concerns diabetic Zucker fatty rat model. The following applies: inhibition of SPT; cited from earlier work.

Regarding `CCCCCCC(=O)CCCCCC/C=C/C[C@@H](O)[C@H](O)[C@@](N)(CO)C(=O)O` [ISP-1, myriocin], on SPT [1], the “inhibition of SPT” value is “potent but non-selective inhibition”.
`CCCCCCCCc1ccc(CCC(N)(CO)CO)cc1` [FTY720]: the “activity against SPT” value in the experiment on SPT [2] is given as “do not inhibit SPT”.
Consider `CCCCCCCCc1ccc(CCC(N)(CO)C(=O)O)cc1` (stereo not shown) [compound 2], for which the “activity against SPT” value in the experiment on SPT [2] is on record as “did not exhibit activity”.
Take `CCCCCCCOc1ccc(CCC(O)C(O)C(N)(CC(N)=O)C(=O)O)cc1` (stereo not shown) [Compound 12]: the “inhibition of SPT” value at SPT [1] was “moderate activity”. Moreover, the “protection of cells from the fatty acid treatment (apoptotic cells by PI staining)” value with Rat pancreatic islets (1 millimolar sodium palmitate) is recorded as “fully protect”. Further, the “benefit in comparison to treatment with the control medium” value in the experiment with Rat pancreatic islets (PI staining) is listed as “imparts a benefit”.
For `N[C@@H]1CON=C1O` [cycloserine], the “beta cell protective effect” value in experiment [3] is on record as “≈ 50%”.
